Measured values: US8772250B2, “Compositions and methods for treating ischemia and ischemia-reperfusion injury” (Ischemix, LLC, priority 2010, dated 2014)
Peptide text beside a SMILES is read from it.

Tests used:
Akt [1] = test: Cytoblot assay for Akt activation in A549 cells; assay type: cell-based, human
Protocol: The ability of RLip-EA-OH to increase phosphorylated Akt was assayed using an in-cell western blot, or cytoblot. A549 cells (human non-small cell lung cancer cell line) were selected because these cells can be manipulated to increase or decrease the level of phosphoryated Akt. The cells were inoculated onto culture plates and allowed to adhere to the bottom, then treated, fixed, and permeabilized. Following permeabilization, the cells were treated with antibodies specific for either phospho-Akt or total Akt. The cells were then treated with fluorescent secondary antibodies to quantify the amount of bound primary antibody. Total Akt and phospho-Akt were simultaneously detected.
A549 cells were plated in 384 well black-wall, clear-bottom, cell culture-treated microtiter plates at 70% confluence. Cells were incubated overnight to allow cell attachment. The media was changed to low serum (0.1%, fetal bovine serum [FBS]) and the cells were incubated for another 24 hours. Cells were treated with test compounds, fixed and permeabilized for the Akt assay. The fixative was 3.7% formaldehyde in phosphate buffered saline. The permeabilization buffer was 0.5% Triton X-100 in phosphate buffered saline. After permeabilization of cells, the amounts of total Akt and phosphorylated Akt at either of the two phosphorylation sites (threonine-308 and serine-473) were determined at 7 test concentrations, each performed in quadruplicate. The phospho-Akt data were normalized to total Akt and background subtracted for analysis.
Following overnight serum starvation to reduce basal Akt phosphorylation, cells were stimulated with vehicle, RLip-EA-OH, or RLip-OH. Cells were treated for 45 minutes or 3 hours and studied for phosphorylation at serine-473 or threonine 308, respectively.

Akt [2] = test: Immunohistochemistry assay for phosphorylated Akt in H9c2 cells; assay type: cell-based, rat; settings: co-treatment with LY294002 (25 μM), 30 minutes prior to RLip-EA-OH
Protocol: The ability of RLip-EA-OH to increase phosphorylated Akt was assayed in H9c2 cells by immunocytochemistry followed by visualization using microscopy. H9c2 cells are a cell line derived from rat cardiac myocytes and can be manipulated to increase or decrease the level of phosphoryated Akt. Cells were inoculated onto culture plates and allowed to adhere to the bottom, treated, fixed, and permeabilized. Following permeabilization, cells were treated initially with specific phospho-Akt antibodies followed by fluorescent secondary antibodies to quantify the amount of bound primary antibody.
H9c2 cells were plated in 12 well cell culture treated plates at 70% confluence. Cells were incubated overnight to allow cell attachment. The media was changed to low serum (0.5%, fetal bovine serum [FBS]) and cells incubated for another 48 hours. Cells were treated for 3 hours with either vehicle, RLip-EA-OH (50 μM), or co-treatment with LY294002 (25 μM), fixed with 3.7% formaldehyde in phosphate buffered saline and permeabilized with 0.5% Triton X-100 in phosphate buffered saline. After permeabilization, the cells were treated with antibody specific for Akt phosphorylated at threonine-308, followed by treatment with a fluorescent labeled secondary antibody.

CHO M1-WT3 cells = test: Cytosolic calcium overload assay, carbachol stimulated; assay type: cell-based, Chinese hamster; settings: 200 nM carbachol, variant concentrations
Excerpt: Cytosolic calcium increases in the CHO M1-WT3 cells when stimulated with carbachol ([Molecular Devices, FlexStation Application Note 2, Comparison of FLIPR® and FLEXstation™ for Calcium Mobilization Assays]) and may be detected with a fluorescent dye that binds calcium. An increase in fluorescence following carbachol stimulation is interpreted as an increase in cytosolic calcium. Chinese hamster ovary (CHO) cells were allowed to adhere to the bottom of a 96-well culture plate. The fluorescent dye and a test sample were placed on the plate and allowed to be taken up by the cells. The fluorescence level was measured every two seconds using a plate reader (Flexstation II, Molecular Devices, Sunnyvale Calif.). The cells were stimulated with carbachol and fluorescent data reported as the peak increase in fluorescence above baseline following carbachol stimulation. Data were normalized to the peak carbachol response in the control sample.
CHO cells from the cell line CHO-M1-WT3 were grown in Hams F12 medium supplemented with 10% FBS and 5 μg/mL G418 to maintain expression of the M1 muscarinic receptor. Cells were seeded the night before the experiment at a concentration of 30,000 cells/well in a volume of 100 μL per well of black walled, clear bottomed, 96-well microplates (“assay plates”). Cells were incubated at 37° C. and 5% CO2 overnight. […] The cells were placed into the FlexStation system to monitor fluorescence before and after the addition of 50 μL of 1 μM carbachol for a final concentration of 200 nM. Fluorescence was measured for 17 seconds prior to carbachol addition and 43 seconds following carbachol addition. The Fluo-4 dye was excited at a wavelength of 485 nm and emission measured at 525 nm. The Calcium-3 dye was excited at a wavelength of 494 nm and emission measured at 525 nm. The calcium response was reported as the peak fluorescence minus the baseline fluorescence calculated as the average of the fluorescence prior to carbachol addition.

[3] = system: myocardial ischemia-reperfusion injury; test: Rat model of myocardial I/R injury (MI/AR ratio); assay type: in vivo; settings: rat
Src = Src (Homo sapiens, UniProt P12931); test: Src tyrosine kinase activation assay (mobility shift); assay type: biochemical
Excerpt: (§1) IGF1R and Src tyrosine kinases have endogenous levels of activity in the presence of ATP and substrate. This activity was readily measured using a mobility shift assay using a Caliper LabChip® 3000 and a 12-sipper LabChip® to detect both phosphorylated and unphosphorylated substrate (Caliper Life Sciences, Discovery Alliances and Services Division). Enzyme, substrate and ATP concentrations were optimized for each assay. For the IGF1R assay, the final concentrations of the enzyme, peptide and ATP were 20 nM, 1.5 μM, and 1220 μM, respectively. For the Src assay, the final concentrations of the enzyme, peptide and ATP were 2.5 nM, 1.5 μM, and 17 μM, respectively.
(§2) RLip-EA-OH was evaluated at multiple concentrations for an effect on activation of IGF1 receptor kinase (IGF1R) and Src. The compounds tested activated IGF1R and Src with different selectivities.

insulin receptor kinase = target: T1, insulin receptor kinase (Homo sapiens, UniProt P06213); test: IRK activation assay (mobility shift kinase assay); assay type: biochemical
T1 construct: insulin receptor kinase domain (Millipore catalog #14-466, 80 nM); purchased Millipore 14-466
Excerpt: Insulin receptor kinase activity was readily measured by a mobility shift assay using a Caliper LabChip® 3000 and a 12-sipper LabChip® to detect both phosphorylated and unphosphorylated substrate (Caliper Life Sciences, Discovery Alliances and Services Division, Hanover, Md.). The mobility-shift kinase assay uses a micro fluidic chip to measure the conversion of a fluorescent peptide substrate to a phosphorylated product. The reaction mixture from a microtiter plate well was introduced through a capillary sipper onto the chip and the nonphosphorylated substrate and phosphorylated product were separated by electrophoresis and detected via laser-induced fluorescence. […] The catalytic subunits of tyrosine kinases have endogenous levels of activity in the presence of ATP and substrate, thus the results are presented as a % of control.
Specifically, each test compound was diluted to 25 times its assay concentration with 100% DMSO and added to 12 μL of an assay buffer solution (100 mM HEPES, 10 mM MnCl2, 5 mM B-GP, and 0.002% Brij) containing dithiotheritol (DTT, 2 mM) and insulin receptor kinase domain (Millipore catalog #14-466, 80 nM) prior to pre-incubation at room temperature for 15 minutes. […] The samples were placed on the LabChip 3000 to measure the amount of parent substrate and phosphorylated product. […]

IGF1R = IGF1R (Homo sapiens, UniProt P08069); test: IGF1R tyrosine kinase activation assay (mobility shift); assay type: biochemical
Excerpt: as §1, §2

[4] = Oxygen Radical Absorbance Capacity (ORAC) assay
Excerpt: Peroxyl radicals are one species of reactive oxygen produced by cells during reperfusion. The presence of peroxyl radicals can be detected by fluorescein oxidation. In the presence of peroxyl radicals, fluorescein fluorescence will decay over time. In the presence of an oxygen radical scavenger, the rate of decay is diminished. The change in the rate of decay between control and in the presence of scavengers is used to measure the peroxyl radical scavenging ability of a test compound.
Each compound tested was diluted to a concentration ranging from 25 μM to 250 μM in 10 mM phosphate buffer (pH=7.4) containing 10 nM fluorescein. The buffer and compound were incubated at 37° C. for 10 minutes. After the incubation, flourescein fluorescence was measured using a plate reader (Molecular Devices Flexstation II, Ex=485, Em=520). Baseline fluorescence measurements were recorded for 15 minutes before 2,2′-azobis(2-methylpropionamidine) dihydrochloride (AAPH) was added. The fluorescence decay was recorded for 90 minutes. The fluorescence decay without compound was subtracted from the fluorescence decay with compound. The slope of the decay vs. concentration is reported as the absorbance capacity.

[5] = system: myocardial ischemia-reperfusion injury; test: Rat model of myocardial I/R injury (MI/AR ratio); assay type: in vivo; settings: rat model of myocardial I/R injury; data not shown
Excerpt: A rat model of myocardial I/R injury was used as an in vivo screen to determine if certain lipoic acid derivative compounds are cardio-protective (e.g., against mycoardial ischemia-reperfusion injury). This model is analogous to the ischemia-reperfusion injury observed in cardiac patients following coronary occlusions and cardiac surgery procedures, such as coronary artery bypass grafting (CABG) (Matsui, T., Tao, J., del Monte, F., Lee, K.-H. et al., Akt Activation Preserves Cardiac Function and Prevents Injury After Transient Cardiac Ischemia In vivo, Circulation 2001, 104:330).
The circumflex branch of the left coronary artery was ligated temporarily to induce regional ischemia in the left ventricular mass, followed by the injection of fluorescent microspheres to delineate the ischemic region. The animals were sacrificed about 24 hours after reperfusion and the hearts were excised, sectioned and stained with triphenyltetrazolium. The direct impact of the pharmacologic intervention was determined by measuring the myocardial infarct area (MI), the ischemic area at risk (AR) and the left ventricular area (LV). The reduction of MI over the AR (MI/AR ratio) was used as the primary measure of drug efficacy relative to vehicle controls.
Male Sprague-Dawley rats between 300 and 350 gm were used for these experiments. Anesthesia was induced with 3-4% isoflurane in an induction chamber. After induction, anesthesia was maintained at a surgical plane with 1.5-2.0% isoflurane, administered by a Rodent Ventilator through a 16-gauge angiocatheter introduced orally into the trachea. The ventilator was set at 2.5 cc at a rate of 60-65 breaths per minute to maintain ventilation during surgery. The core temperature of the animal was monitored and maintained at 37° C. using a rectal probe and a heating lamp attached to a temperature controller.
A left anterior thoracotomy was performed and the heart was exposed using a vertical pericardotomy. The circumflex branch of the left coronary artery (LCx) was ligated approximately 4 mm from the aorta using a cardiovascular 7.0 monofilament suture on an 11 mm needle to induce ischemia in the left ventricle.
Fluorescent microspheres (300 μL) were injected into the left ventricular cavity 10-20 minutes after the ligation to delineate the ischemic area. The suture was removed 30 minutes after ligation to reperfuse the ischemic area and the ischemic area was checked for reperfusion.
The chest was then closed in layers using absorbable suture (Dexon 5-0) for the muscle layers and monofilament Nylon 5-0 suture was used to close the cutaneous layer. The animals were allowed to recover, then were returned to the colony.
Twenty-four hours after reperfusion, anesthesia was induced using ketamine hydrochloride and the chest was opened. The animals were sacrificed with 15% potassium chloride aqueous solution (w/v) injected into the LV cavity to arrest the heart in diastole. The heart was excised distal to the aortic valve and washed with saline to remove the blood. Sagittal slices of the heart were obtained between the base of the ventricle and the apex. Five slices of heart tissue were obtained, each 2 mm thick. The slices were immersed in a 1% 2,3,5-triphenyl-2H-tetrazolium chloride (TTC) in saline solution and then stored in the dark for 30 minutes to stain.
Images of the slices were obtained under bright field (to observe the TTC staining) and under fluorescence (to observe the microspheres). The area at risk was determined by the absence of microspheres and the infarct area was determined by the absence of TTC staining.
In vivo experiments employing a rat model of myocardial I/R injury were performed as described in Example 8. Catheterized (jugular vein) rats were used for intravenous dose administration at time points prior to and/or including 0.25 h.

T1 sequence (P06213 1023-1298 limits assumed): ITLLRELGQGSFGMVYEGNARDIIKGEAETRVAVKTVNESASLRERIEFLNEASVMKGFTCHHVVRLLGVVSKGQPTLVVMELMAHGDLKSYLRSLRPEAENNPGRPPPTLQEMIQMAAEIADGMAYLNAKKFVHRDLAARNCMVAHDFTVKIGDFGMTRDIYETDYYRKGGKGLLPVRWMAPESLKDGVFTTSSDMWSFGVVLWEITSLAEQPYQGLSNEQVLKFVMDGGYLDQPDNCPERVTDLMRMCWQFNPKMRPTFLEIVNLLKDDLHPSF
Sequence of Src (P12931 whole entry, species assumed): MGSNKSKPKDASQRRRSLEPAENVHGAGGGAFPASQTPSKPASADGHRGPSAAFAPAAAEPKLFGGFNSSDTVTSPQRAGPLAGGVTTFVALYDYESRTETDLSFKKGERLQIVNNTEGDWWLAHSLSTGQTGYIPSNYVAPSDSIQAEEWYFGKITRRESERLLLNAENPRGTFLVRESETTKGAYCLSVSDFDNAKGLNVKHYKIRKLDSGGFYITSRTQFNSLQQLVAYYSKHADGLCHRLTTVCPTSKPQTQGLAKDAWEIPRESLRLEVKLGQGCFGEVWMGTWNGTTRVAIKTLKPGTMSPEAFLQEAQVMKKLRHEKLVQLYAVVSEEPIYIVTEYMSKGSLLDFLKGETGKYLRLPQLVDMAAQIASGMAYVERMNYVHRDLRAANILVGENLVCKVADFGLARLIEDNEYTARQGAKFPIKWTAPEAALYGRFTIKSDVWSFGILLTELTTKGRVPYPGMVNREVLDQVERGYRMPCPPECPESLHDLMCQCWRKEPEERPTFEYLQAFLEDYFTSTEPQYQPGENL
Sequence of IGF1R (P08069 959-1367 limits assumed, species assumed): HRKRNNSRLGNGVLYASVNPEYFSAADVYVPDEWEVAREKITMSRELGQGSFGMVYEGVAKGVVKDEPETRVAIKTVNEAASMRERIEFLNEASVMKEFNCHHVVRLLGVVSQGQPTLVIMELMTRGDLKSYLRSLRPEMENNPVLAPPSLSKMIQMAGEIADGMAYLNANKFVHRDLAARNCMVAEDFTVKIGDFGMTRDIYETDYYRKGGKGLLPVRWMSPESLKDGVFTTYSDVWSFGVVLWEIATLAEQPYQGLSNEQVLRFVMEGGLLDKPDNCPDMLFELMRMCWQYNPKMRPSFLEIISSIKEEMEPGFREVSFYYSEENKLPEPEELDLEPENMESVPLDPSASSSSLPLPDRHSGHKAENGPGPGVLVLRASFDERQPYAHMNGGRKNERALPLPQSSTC

Q: For `O=c1cc(N2CCOCC2)oc2c(-c3ccccc3)cccc12` [LY294002, 2-(4-morpholinyl)-8-phenyl-4H-1-benzopyran-4-one, reference compound], which “effect on RLip-EA-OH-increased phosphorylation of Akt” value (Akt [1]; cotreatment with 5 μM LY294002, 3 hours) is on record?
A: Its value is “completely inhibited”.

Q: What about the “effect on fluorescence intensity from Akt phosphorylation induced by RLip-EA-OH” value (Akt [2]) of the same molecule?
A: Its value is “diminished the fluorescence intensity”.

Q: With `O=C(O)CCCC[C@@H]1CCSS1` [RLip-OH, (R)-lipoic acid, reference compound] as the molecule, how does the “effect on carbachol stimulated flux in cytosolic calcium” value (CHO M1-WT3 cells) read?
A: Its value is “minimal effect”.

Q: What about the “Reduction of MI:AR Ratio Relative to Vehicle (%)” value ([3]; 2 mg/kg IC, Table 7 meta analysis) of the same molecule?
A: The value was 19 ± 7 %.

Q: What about the “increase in phosphorylated Akt at serine 473” value (Akt [1]; 45 minutes of treatment) of the same molecule?
A: The value was 2 fold.

Q: What about the “amount of phosphorylated Akt relative to total Akt” value (Akt [1]; variant concentrations) of the same molecule?
A: The value was “increased the amount of phosphorylated Akt relative to total Akt in a dose dependent manner”.

Q: What about the “Src % Increase in activity above vehicle control” value (Src; 300 μM) of the same molecule?
A: Its value is 15 ± 1%.

Q: And the “IRK % Increase in activity above vehicle control” value (insulin receptor kinase; 300 μM)?
A: The value was 48 ± 1%.

Q: And the “IGF1R % Increase in activity above vehicle control” value (IGF1R; 300 μM)?
A: Its value is 37 ± 4%.

Q: And the “ORAC Value relative to RLip-OH” value ([4]; mean of 3-4 experiments)?
A: The value was 100 ± 6.

Q: Which MI/AR ([3]; 1 mg/kg single bolus IC 15 minutes prior to ischemia) does the source give for `C[C@H](NC(=O)[C@H](CCC(=O)O)NC(=O)CCCC[C@H]1CCSS1)C(=O)O` [SLip-EA-OH, N-(S)-lipoyl-L-glutamyl-L- alanine] here?
A: The MI/AR was 0.401.

Q: What about the MI/AR ([3]; 2 mg/kg single bolus IC 15 minutes prior to ischemia) of the same molecule?
A: Its MI/AR is 0.400.

Q: What about the “Src % activity above control (±SEM)” value (Src; 100 μM) of the same molecule?
A: The value was 19 ± 1%.

Q: And the “AVG % activity above control (±SEM)” value (insulin receptor kinase; 100 μM)?
A: The value was 4 ± 12%.

Q: And the “IGF1R % activity above control (±SEM)” value (IGF1R; 100 μM)?
A: The value was −4 ± 10%.

Q: And the “ORAC Value relative to RLip-EA-OH” value ([4]; mean of 3-4 experiments)?
A: The value was 89 ± 4.

Q: Which results are given for `CC(=O)N[C@@H](CCC(=O)O)C(=O)N[C@@H](C)C(=O)O` [Ac-EA-OH, N-acetyl-L-glutamyl-L- alanine, reference compound] (Ac-Glu-Ala-OH)?
A: effect on carbachol stimulated flux in cytosolic calcium (CHO M1-WT3 cells): minimal effect; efficacy compared to vehicle [5]: statistically similar to vehicle; peroxyl radical absorption capability ([4]; ORAC assay): no appreciable peroxyl radical absorption capability; ORAC Value relative to RLip-OH ([4]; mean of 3-4 experiments): 8 ± 5
